What was measured:
Format in all cases: in vivo
[1] = test system: delayed type asthmatic response; assay: Effect on experimental delayed type asthma model in guinea pigs; conditions: AUC of airway resistance 4-8 hours after challenge
From the text: (§1) Effect on experimental immediate and delayed type asthma model in guinea pigs
(§2) The asthma is typical allergic disease and we carried out this pharmacological test by experimental asthmatic model in guinea pigs in order to confirm that the compounds of the present invention, compound 21, 41 and 46, suppress immediate and delayed type asthmatic response. In the following, the method of the pharmacological test will be explained.
(§3) Method: Male hartley guinea pigs were sensitized by exposured aerosolized ovalbumine (OVA) (1% in saline) for 10 minutes per a day at eight times. The aerosol was generated by an ultrasonic nebulizer (NE-U12, Omuron inc.). One week after final sensitization, the animals were challenged with inhalation of OVA (2% in saline) for 5 minutes. The animals were pretreated with metyrapone (10 mg/kg, i.v.) at 1 and 4 hours before the challenge, and pyrilamine (10 mg/kg, i.p.) at 30 minutes before the challenge. airway resistance in the conscious animals were measured for 1 minute with PULMOS-1(made in Medical Interface Project Station Inc.) at 1 minute, 2, 4, 5, 6, 7, 8 and 23 to 24 hours after the challenge. Compound 21, 41 and 46 (test compound) suspended in 0.5% methylcellulose (MC) solution were given orally at doses of 5, 10 and 20 mg/kg 1 hour before and 3 hours after the challenge. As a positive control group, Prednisolone was given orally at a dose of 10 mg/kg 2 hours and 16 hours before the challenge. As vehicle control group, only 0.5% MC solution was given orally.
(§4) The evaluation of the effect of the compounds on immediate and delayed type asthmatic response was undertaken with percentage of change in airway resistance 1 minute after the challenge and the area under the response curve for percentage of change in airway resistance between 4 and 8 hours after the challenge, respectively. The inhibition (%) of the compounds for immediate and delayed type asthmatic response was calculated according to equation 4 and the result was shown in table 3. Each experimental group consisted of 8 guinea pigs.
(§5) Inhibition (%)=(A-B)/A×100 (equation 4)
(§6) A: percentage of change in airway resistance in vehicle control group
(§7) B: percentage of change in airway resistance in test compound group or positive control group

[2] = test system: immediate type asthmatic response; assay: Effect on experimental immediate type asthma model in guinea pigs; conditions: airway resistance 1 minute after challenge
From the text: as §1, §2, §3, §4, §5, §6, §7

[3] = test system: contact dermatitis induced by picryl chloride; assay: Effect on contact dermatitis induced by picryl chloride in mice; conditions: Mus musculus, po, read-out: Inhibition (%) of increase of ear thickness; for inhibition in vivo at 20 mg/kg: test compounds, 20 mg/kg p.o. 12 hours after challenge, ear thickness at 24 hours
Procedure: Effect on contact dermatitis induced by picryl chloride in mice
The delayed type hypersensitization is inhibited by steroid, but can not be effected by known anti-allergic agents. In the following, the method of the pharmacological test will be explained.
Method: Mice, shaved their abdominal skin on previous day, were immunized by applying 0.1 ml of acetone containing 7 mg of picryl chloride to the skin of the abdomen. 7 days after immunization, the thickness of the ear was measured with a dial thickness gauge, then mice were challenged by painting […] of 1% picryl chloride olive oil solution to each side skin of left ear. 24 hours after challenge, the thickness of the left ear was measured again. The compounds of the present invention (test compounds) suspended in 0.5% MC were forcibly administered orally at a dose of 20 mg/kg 12 hours after challenge. As vehicle control group, only 0.5% MC solution was administered orally, and as positive control group, Prednisolone, steroid hormone, was administered orally at a dose of 10 mg/kg and as negative control group, Tranilast was administered orally at a dose of 200 mg/kg.
Increase (%)=(A-B)/B×100 (Equation 2)
A: thickness of the ear at 24 hours after challenge
B: thickness of the ear before challenge
Inhibition (%)=(C-D)/C×100 (Equation 3)
C: The increase (%) in vehicle control group
D: The increase (%) in test compounds group, positive control group

[4] = test system: passive cutaneous anaphylaxis (PCA) reaction; assay: Effect on homologous passive cutaneous anaphylaxis (PCA) reaction in rats; conditions: Rattus norvegicus, po, 0.5 h; test compounds, 100 mg/kg p.o., 1 hour before induction of anaphylaxis, male wistar rats
Procedure: Effect on homologous passive cutaneous anaphylaxis (PCA) reaction in rats
This experimental animal model is caused by immediate type allergic reaction, namely, antigen-antibody reaction. In the following, the method of this pharmacological test will be explained.
Method: Male wistar rats (9 weeks old) were intradermally administered 0.05 ml of anti-serum against dinitrophenylated ascaris (DNP-As) into two sites on the shaved dorsal skin. 48 hours later, aminoquinolinone derivatives (test compounds) suspended in 0.5% methylcellulose (MC) were given orally at a dose of 100 mg/kg to the animals. 1 hour after administration of Test compounds, the animals were induced anaphylaxis by injection of saline (1 ml) dissolving 1 mg of trinitrophenylated ascaris (TNP-As) and 5 mg of Evans Blue into the tail vein of the animals. 30 minutes after induction of anaphylaxis, animals were anesthetized by ether and killed by bleeding, and were flayed dorsal skin. The leakage of dye was assessed by measuring the diameter (mean of shortest and longest diameter) of the blue spot on the inside surface of dorsal skin. As vehicle control group, only 0.5% MC solution was administered orally, and as positive control group, Tranilast suspended in 0.5% MC were administered orally at a dose of 200 mg/kg to the animals with the same method as the test compounds groups, The inhibition (%) of PCA reaction was calculated according to equation 1 and the result was shown in Table 1. Each experimental group consisted of 5 rats.
In the conditions of this experiment, it was considered that the compound, which inhibited PCA reaction by over forty (40) percent against that in vehicle control group, was evidently effective for immediate type allergy.
Inhibition (%)=(A-B)/A×100 (Equation 1)
A: leakage of dye in vehicle control group
B: leakage of dye in test compound group or positive control group

[5] = 5 mg/kg p.o. 1 hour before and 3 hours after challenge
[6] = 10 mg/kg p.o. 1 hour before and 3 hours after challenge
[7] = 20 mg/kg p.o. 1 hour before and 3 hours after challenge
[8] = Prednisolone 10 mg/kg p.o. 2 hours and 16 hours before challenge

## C=CCNc1ccc2c(O)c(OCCCCCCCC)c(=O)n(C)c2c1 [compound 46, 7-(2-propenylamino)-3-octyloxy-4-hydroxy-1-methyl-2(1H)-quinolinone]
[1]; [5]
  inhibition (%), delayed type asthma: 32%
[1]; [6]
  inhibition (%), delayed type asthma: 44%
[1]; [7]
  inhibition (%), delayed type asthma: 53%
[2]; [5]
  inhibition (%), immediate type asthma: 30%
[2]; [6]
  inhibition (%), immediate type asthma: 28%
[2]; [7]
  inhibition (%), immediate type asthma: 33%
[3]
  inhibition in vivo at 20 mg/kg: 55%
[4]
  inhibition in vivo at 100 mg/kg: 46%

## CCCCCCOc1c(O)c2ccc(N)cc2n(C)c1=O [compound 21, 7-amino-3-hexyloxy-4-hydroxy-1-methyl-2(1H)-quinolinone]
[1]; [5]
  inhibition (%), delayed type asthma: 23%
[1]; [6]
  inhibition (%), delayed type asthma: 39%
[1]; [7]
  inhibition (%), delayed type asthma: 48%
[2]; [5]
  inhibition (%), immediate type asthma: 20%
[2]; [6]
  inhibition (%), immediate type asthma: 30%
[2]; [7]
  inhibition (%), immediate type asthma: 31%
[3]
  inhibition in vivo at 20 mg/kg: 51%
[4]
  inhibition in vivo at 100 mg/kg: 60%

## C[C@]12C=CC(=O)C=C1CC[C@@H]1[C@@H]2[C@@H](O)C[C@@]2(C)[C@H]1CC[C@]2(O)C(=O)CO [Prednisolone, reference compound]
[1]; [8]
  inhibition (%), delayed type asthma: 51%
[2]; [8]
  inhibition (%), immediate type asthma: 35%
[3]; 24 h
  inhibition in vivo at 10 mg/kg: 53%

## CCCCCCCCOc1c(O)c2ccc(NC(=O)/C=C/c3cc(OC)c(O)c(OC)c3)cc2n(C)c1=O [compound 41, 7-(3,5-dimethoxy-4-hydroxycinnamoylamino)-3-octyloxy-4-hydroxy-1-methyl-2(1H)-quinolinone]
[1]; [5]
  inhibition (%), delayed type asthma: 39%
[1]; [6]
  inhibition (%), delayed type asthma: 54%
[1]; [7]
  inhibition (%), delayed type asthma: 84%
[2]; [5]
  inhibition (%), immediate type asthma: 26%
[2]; [6]
  inhibition (%), immediate type asthma: 31%
[2]; [7]
  inhibition (%), immediate type asthma: 43%
[3]
  inhibition in vivo at 20 mg/kg: 50%
[4]
  inhibition in vivo at 100 mg/kg: 53%

## CCCCCCNc1ccc2c(O)c(OC)c(=O)n(C)c2c1 [compound 27, 7-hexylamino-3-methoxy-4-hydroxy-1-methyl-2(1H)-quinolinone]
[3]
  inhibition in vivo at 20 mg/kg: 46%
[4]
  inhibition in vivo at 100 mg/kg: 45%

## CCCCn1c(=O)c(OCC=C(C)C)c(O)c2ccc(NC)cc21 [compound 37, 7-methylamino-3-prenyloxy-4-hydroxy-1-butyl-2(1H)-quinolinone]
[3]
  inhibition in vivo at 20 mg/kg: 45%
[4]
  inhibition in vivo at 100 mg/kg: 42%

## CCCCCCCCOc1c(O)c2ccc(NC(=O)c3ccccc3)cc2n(C)c1=O [compound 49, 7-benzoylamino-3-octyloxy-4-hydroxy-1-methyl-2(1H1)-quinolinone]
[3]
  inhibition in vivo at 20 mg/kg: 43%
[4]
  inhibition in vivo at 100 mg/kg: 46%

## CCCCCCOc1c(O)c2ccc(N)cc2n(CC)c1=O [compound 32, 7-amino-3-hexyloxy-4-hydroxy-1-ethyl-2(1H)-quinolinone]
[3]
  inhibition in vivo at 20 mg/kg: 48%
[4]
  inhibition in vivo at 100 mg/kg: 44%

## CNc1ccc2c(OC)c(O)c(=O)n(C)c2c1 [compound 10, 7-methylamino-3-hydroxy-4-methoxy-1-methyl-2(1H)-quinolinone]
[3]
  inhibition in vivo at 20 mg/kg: 40%
[4]
  inhibition in vivo at 100 mg/kg: 42%

— patent US5942521A, “Quinolinone derivative and anti-allergic agent with said quinolinone derivative as the active ingredient” (Dainippon Ink and Chemicals, Inc., priority 1996, dated 1999)
